Consider 21 compounds from the NIST ThermoML archive (doi:10.1021/je200050q).

Molecules are shown by their SMILES. ± gives the expanded uncertainty stated by the source.

This series in a line: activity coefficient (dimensionless); of the first substance listed, at infinite dilution; xn = mol fraction of the nth substance listed. To be noted: 101 kPa, Liquid, Chromatography, x1 = 0.

As for `Cc1ccccc1C` [1,2-dimethylbenzene] + CCCCn1cc[n+](C)c1.O=[N+]([O-])[O-], the activity coefficient stood at 4.31 ± 0.24 (303.15 K); 4.38 ± 0.24 (313.15 K); 4.44 ± 0.25 (323.15 K); 4.49 ± 0.25 (333.15 K); 4.54 ± 0.25 (343.15 K); 4.58 ± 0.25 (353.15 K). For the same compound, the activity coefficient (363.15 K) was 4.63 ± 0.26.

In the case of `Cc1cccc(C)c1` [1,3-dimethylbenzene] + CCCCn1cc[n+](C)c1.O=[N+]([O-])[O-], the activity coefficient came to 5.42 ± 0.3 (303.15 K); 5.47 ± 0.3 (313.15 K); 5.5 ± 0.3 (323.15 K); 5.55 ± 0.31 (333.15 K); 5.57 ± 0.31 (343.15 K); 5.62 ± 0.31 (353.15 K). The activity coefficient (363.15 K) was 5.61 ± 0.31.

`Cc1ccc(C)cc1` [1,4-dimethylbenzene] + CCCCn1cc[n+](C)c1.O=[N+]([O-])[O-]: the activity coefficient runs as follows: (303.15 K) 5.06 ± 0.28; (313.15 K) 5.17 ± 0.29; (323.15 K) 5.16 ± 0.29; (333.15 K) 5.22 ± 0.29; (343.15 K) 5.22 ± 0.29; (353.15 K) 5.24 ± 0.29. Moreover, the activity coefficient (363.15 K) worked out at 5.26 ± 0.29.

Turning to `CC(C)=O` [acetone] + CCCCn1cc[n+](C)c1.O=[N+]([O-])[O-], the activity coefficient (303.15 K) worked out at 1.11 ± 0.055; the activity coefficient (313.15 K) is 1.12 ± 0.055; the activity coefficient (323.15 K) was 1.13 ± 0.056; the activity coefficient (333.15 K) turned out to be 1.16 ± 0.058; the activity coefficient (343.15 K) was determined as 1.17 ± 0.059; the activity coefficient (353.15 K) amounted to 1.23 ± 0.062. In addition, the activity coefficient (363.15 K) turned out to be 1.25 ± 0.063.

For the compound `CC#N` [acetonitrile] + CCCCn1cc[n+](C)c1.O=[N+]([O-])[O-], the activity coefficient (303.15 K) is 0.6 ± 0.035; the activity coefficient (313.15 K) was 0.605 ± 0.035; the activity coefficient (323.15 K) was found to be 0.615 ± 0.035; the activity coefficient (333.15 K) came to 0.62 ± 0.035; the activity coefficient (343.15 K) worked out at 0.626 ± 0.036; the activity coefficient (353.15 K) is 0.63 ± 0.036. In addition, the activity coefficient (363.15 K) came to 0.644 ± 0.036.

In the case of `c1ccccc1` [benzene] + CCCCn1cc[n+](C)c1.O=[N+]([O-])[O-], the activity coefficient by setting is: (303.15 K) 1.85 ± 0.1; (313.15 K) 1.88 ± 0.1; (323.15 K) 1.91 ± 0.1; (333.15 K) 1.95 ± 0.11; (343.15 K) 2.01 ± 0.11; (353.15 K) 1.99 ± 0.11. Also, the activity coefficient (363.15 K) amounted to 2.02 ± 0.11.

In the case of `C1CCCCC1` [cyclohexane] + CCCCn1cc[n+](C)c1.O=[N+]([O-])[O-], the activity coefficient (303.15 K) worked out at 29.8 ± 1.7; the activity coefficient (313.15 K) was found to be 27.6 ± 1.5; the activity coefficient (323.15 K) amounted to 25.6 ± 1.4; the activity coefficient (333.15 K) came out at 23.9 ± 1.3; the activity coefficient (343.15 K) came out at 22.4 ± 1.2; the activity coefficient (353.15 K) is 21.1 ± 1.2. Moreover, where the note is “363.15 K”, the activity coefficient came to 19.9 ± 1.1.

As for `ClCCl` [dichloromethane] + CCCCn1cc[n+](C)c1.O=[N+]([O-])[O-], the activity coefficient by setting is: (303.15 K) 0.464 ± 0.031; (313.15 K) 0.491 ± 0.032; (323.15 K) 0.526 ± 0.033; (333.15 K) 0.552 ± 0.033; (343.15 K) 0.579 ± 0.034; (353.15 K) 0.602 ± 0.035. For the setting “363.15 K”, the activity coefficient worked out at 0.64 ± 0.036.

For `CCO` [ethanol] + CCCCn1cc[n+](C)c1.O=[N+]([O-])[O-], the activity coefficient is 0.564 ± 0.034 (303.15 K); 0.543 ± 0.033 (313.15 K); 0.529 ± 0.033 (323.15 K); 0.52 ± 0.033 (333.15 K); 0.511 ± 0.032 (343.15 K); 0.508 ± 0.032 (353.15 K). For the same compound, the activity coefficient (363.15 K) was determined as 0.507 ± 0.032.

As to `CCOC(C)=O` [ethyl acetate] + CCCCn1cc[n+](C)c1.O=[N+]([O-])[O-], the activity coefficient was determined as 2.93 ± 0.16 (303.15 K); 2.98 ± 0.17 (313.15 K); 3.01 ± 0.17 (323.15 K); 3.04 ± 0.17 (333.15 K); 3.07 ± 0.17 (343.15 K); 3.18 ± 0.18 (353.15 K). Besides, the activity coefficient (363.15 K) worked out at 3.25 ± 0.18.

As for `CCc1ccccc1` [ethylbenzene] + CCCCn1cc[n+](C)c1.O=[N+]([O-])[O-], the activity coefficient runs as follows: (303.15 K) 5.53 ± 0.31; (313.15 K) 5.55 ± 0.31; (323.15 K) 5.56 ± 0.31; (333.15 K) 5.56 ± 0.31; (343.15 K) 5.6 ± 0.31; (353.15 K) 5.59 ± 0.31. Moreover, the activity coefficient (363.15 K) was found to be 5.61 ± 0.31.

`CCCCCCC` [heptane] + CCCCn1cc[n+](C)c1.O=[N+]([O-])[O-]: the activity coefficient runs as follows: (303.15 K) 105 ± 5.9; (313.15 K) 97.1 ± 5.4; (323.15 K) 89.9 ± 5; (333.15 K) 83.6 ± 4.7; (343.15 K) 78.1 ± 4.4; (353.15 K) 73.2 ± 4.1. Further, the activity coefficient (363.15 K) was determined as 68.9 ± 3.8.

As to `CCCCCC` [hexane] + CCCCn1cc[n+](C)c1.O=[N+]([O-])[O-], the activity coefficient turned out to be 63.9 ± 3.6 (303.15 K); 58.1 ± 3.2 (313.15 K); 53.1 ± 3 (323.15 K); 48.8 ± 2.7 (333.15 K); 45.1 ± 2.5 (343.15 K); 41.8 ± 2.3 (353.15 K). For the same compound, where the note is “363.15 K”, the activity coefficient was determined as 39 ± 2.2.

With `CO` [methanol] + CCCCn1cc[n+](C)c1.O=[N+]([O-])[O-], the activity coefficient is 0.322 ± 0.029 (303.15 K); 0.318 ± 0.029 (313.15 K); 0.315 ± 0.029 (323.15 K); 0.31 ± 0.029 (333.15 K); 0.307 ± 0.029 (343.15 K); 0.303 ± 0.029 (353.15 K). Besides, the activity coefficient (363.15 K) was 0.302 ± 0.029.

As for `CC1CCCCC1` [methylcyclohexane] + CCCCn1cc[n+](C)c1.O=[N+]([O-])[O-], the activity coefficient (303.15 K) was 45.3 ± 2.5; the activity coefficient (313.15 K) was 42.1 ± 2.4; the activity coefficient (323.15 K) was 39.4 ± 2.2; the activity coefficient (333.15 K) was 37 ± 2.1; the activity coefficient (343.15 K) was found to be 34.9 ± 1.9; the activity coefficient (353.15 K) turned out to be 33 ± 1.8. Moreover, for the setting “363.15 K”, the activity coefficient worked out at 31.2 ± 1.7.

Regarding `CCCCCCCCC` [nonane] + CCCCn1cc[n+](C)c1.O=[N+]([O-])[O-], the activity coefficient is, setting by setting: (303.15 K) 263 ± 15; (313.15 K) 238 ± 13; (323.15 K) 218 ± 12; (333.15 K) 200 ± 11; (343.15 K) 184 ± 10; (353.15 K) 171 ± 9.6. Also, the activity coefficient (363.15 K) is 159 ± 8.9.

On to `CCCCCCCC` [octane] + CCCCn1cc[n+](C)c1.O=[N+]([O-])[O-], for which the activity coefficient turned out to be 168 ± 9.4 (303.15 K); 154 ± 8.6 (313.15 K); 141 ± 7.9 (323.15 K); 131 ± 7.3 (333.15 K); 121 ± 6.8 (343.15 K); 113 ± 6.3 (353.15 K). Where the note is “363.15 K”, the activity coefficient worked out at 106 ± 5.9.

Turning to `CCCO` [propan-1-ol] + CCCCn1cc[n+](C)c1.O=[N+]([O-])[O-], the activity coefficient is, setting by setting: (303.15 K) 0.765 ± 0.04; (313.15 K) 0.732 ± 0.039; (323.15 K) 0.706 ± 0.038; (333.15 K) 0.687 ± 0.037; (343.15 K) 0.674 ± 0.037; (353.15 K) 0.662 ± 0.037. Where the note is “363.15 K”, the activity coefficient was found to be 0.654 ± 0.036.

Take `ClC(Cl)(Cl)Cl` [tetrachloromethane] + CCCCn1cc[n+](C)c1.O=[N+]([O-])[O-]: the activity coefficient reads like this: (303.15 K) 2.09 ± 0.12; (313.15 K) 2.17 ± 0.12; (323.15 K) 2.4 ± 0.13; (333.15 K) 2.52 ± 0.14; (343.15 K) 2.65 ± 0.15; (353.15 K) 2.81 ± 0.15. In addition, the activity coefficient (363.15 K) was 2.83 ± 0.16.

Take `Cc1ccccc1` [toluene] + CCCCn1cc[n+](C)c1.O=[N+]([O-])[O-]: the activity coefficient by setting is: (303.15 K) 3.09 ± 0.17; (313.15 K) 3.15 ± 0.17; (323.15 K) 3.19 ± 0.18; (333.15 K) 3.24 ± 0.18; (343.15 K) 3.29 ± 0.18; (353.15 K) 3.33 ± 0.18. Also, the activity coefficient (363.15 K) came out at 3.37 ± 0.19.

On to `ClC(Cl)Cl` [trichloromethane] + CCCCn1cc[n+](C)c1.O=[N+]([O-])[O-], for which the activity coefficient by setting is: (303.15 K) 0.28 ± 0.028; (313.15 K) 0.316 ± 0.029; (323.15 K) 0.334 ± 0.029; (333.15 K) 0.39 ± 0.03; (343.15 K) 0.415 ± 0.03; (353.15 K) 0.445 ± 0.031. The activity coefficient (363.15 K) came out at 0.504 ± 0.032.
